Experiment [1] has as its target T1, human amylin 3(a) receptor (human calcitonin receptor + RAMP-3) in BHK570 cells (Homo sapiens, UniProt O60896+P30988).
T1 construct: expressed in transfected cells
Nature of the experiment: ASSAY (II)a functional assay, human amylin receptor (CRE luciferase). The class given is cell-based. The settings on record: for EC50: human amylin receptor functional potency, assay (II), read-out: hAmylin-R funct. EC50. The essentials: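 Read-out: CRE-driven luciferase luminescence, single photon counting, after 30 min at room temperature with LucLite. BHK cells expressed calcitonin receptor alone or with RAMP-3 (amylin 3(a)). Cells were stimulated 3 h at 37° C in DMEM, 10% FBS, 10 mM Hepes, pH 7.4.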

Experiment [2] deals with T2, human amylin receptor (membranes from Amylin 3(a)/CRE-luc cells) (Homo sapiens, UniProt O60896+P30988).
T2 construct: expressed in transfected cells
T2 sequence (P30988 25-474): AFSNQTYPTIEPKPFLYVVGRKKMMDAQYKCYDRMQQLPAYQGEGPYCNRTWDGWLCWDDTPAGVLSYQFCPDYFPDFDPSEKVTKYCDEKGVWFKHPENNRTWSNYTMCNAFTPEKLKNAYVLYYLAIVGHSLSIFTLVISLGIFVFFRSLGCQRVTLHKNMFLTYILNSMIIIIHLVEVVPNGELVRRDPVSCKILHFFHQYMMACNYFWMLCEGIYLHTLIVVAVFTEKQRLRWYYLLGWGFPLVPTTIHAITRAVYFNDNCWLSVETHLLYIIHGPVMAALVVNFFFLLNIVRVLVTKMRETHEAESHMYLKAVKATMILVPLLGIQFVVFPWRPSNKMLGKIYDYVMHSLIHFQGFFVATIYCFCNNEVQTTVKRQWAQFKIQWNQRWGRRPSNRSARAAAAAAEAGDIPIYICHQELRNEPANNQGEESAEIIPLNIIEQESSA
T2 sequence (O60896 24-148 partner): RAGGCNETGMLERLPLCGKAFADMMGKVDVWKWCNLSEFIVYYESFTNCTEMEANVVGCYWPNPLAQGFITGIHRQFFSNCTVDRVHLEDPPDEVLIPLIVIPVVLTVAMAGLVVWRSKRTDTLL
Nature of the experiment: ASSAY (V) binding to the human amylin receptor (SPA, 125I-rat amylin).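 As to all read-outs here: competition binding of cell membranes (35 ng/µL) mixed with SPA beads in 384-well plates at 40 µL total volume, read by scintillation counting.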 To be noted: for IC50: Table 4, read-out: hAmylin-R bind IC50.

In the next experiment the target is T3, rat calcitonin receptor (Rattus norvegicus, UniProt P32214).
T3 construct: expressed in transfected cells; host or cells: BHK tk'ts 13 (transient, FuGENE 6), membranes
T3 sequence (P32214 25-479 isoform P32214-2 limits assumed): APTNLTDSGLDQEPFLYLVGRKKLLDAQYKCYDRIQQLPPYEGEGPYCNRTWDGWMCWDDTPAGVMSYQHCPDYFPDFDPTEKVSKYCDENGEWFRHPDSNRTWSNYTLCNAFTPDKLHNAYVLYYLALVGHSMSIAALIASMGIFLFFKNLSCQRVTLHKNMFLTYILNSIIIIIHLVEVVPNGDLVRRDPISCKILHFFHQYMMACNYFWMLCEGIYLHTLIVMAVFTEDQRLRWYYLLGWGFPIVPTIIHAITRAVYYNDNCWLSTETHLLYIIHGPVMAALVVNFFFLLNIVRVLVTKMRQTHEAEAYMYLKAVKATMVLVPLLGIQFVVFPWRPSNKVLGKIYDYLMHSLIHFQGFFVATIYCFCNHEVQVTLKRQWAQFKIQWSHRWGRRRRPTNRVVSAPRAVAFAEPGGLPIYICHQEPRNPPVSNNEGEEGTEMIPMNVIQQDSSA
Put plainly: ASSAY (VIII) binding to the rat calcitonin receptor. To be noted: Table 7, read-out: rCTR bind IC50. The essentials:
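BHK tk′ts 13 cells, transient rat calcitonin receptor transfection; DMEM + 10% FBS; harvest ~48 h post-transfection; membrane prep.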

[3] abbreviates: hCTR funct. EC50 divided by hAmylin-R funct. EC50.
[4] abbreviates: hCTR funct. EC50 over hAmylin-R funct. EC50.
Setting [5] is: human functional selectivity: hCTR funct. EC50 / hAmylin-R funct. EC50.
Where [6] appears, read: Table 5, selectivity, hCTR bind IC50 / hAmylin-R bind IC50.
[7] abbreviates: Table 5a, selectivity, hCTR bind IC50 / hAmylin-R bind IC50.
Setting [8] is: Table 5b, selectivity, hCTR bind IC50 / hAmylin-R bind IC50.
The mark [9] stands for this setting: Table 5c, selectivity, hCTR bind IC50 / hAmylin-R bind IC50.
[10] abbreviates: Table 7, human binding selectivity, included for comparison.
The mark [11] stands for this setting: Table 7a (preferred compounds), human binding selectivity, included for comparison.
Where [12] appears, read: ratio of human calcitonin receptor binding IC50 to human amylin receptor binding IC50.

The term EC50 denotes the concentration that produces a half-maximal response. One may read the IC50 as the midpoint of a concentration-inhibition curve.

The structures appear in SMILES notation. Numbered stars: 1 amine (or outer) side, 2 acyl side, 3 side chain; on linkers, the order of the positions; unused ones are H or OH. Bridge positions count the residues as written; N and C are the ends. Side chains are listed from the residue outwards. Peptide text beside a SMILES is read from it. * marks the point of attachment. C20 diacid = O=C(O)CCCCCCCCCCCCCCCCCCC(=O)*; γGlu = O=C(O)[C@H](CCC(=O)[*:2])N[*:1]; AEEA = NCCOCCOCC(=O)O

With `CC[C@H](C)[C@H](NC(=O)[C@H](C)NC(=O)CNC(=O)[C@H](Cc1ccccc1)NC(=O)[C@H](CC(N)=O)NC(=O)[C@@H]1CCCN1C(=O)[C@H](CO)NC(=O)[C@H](CO)NC(=O)[C@H](Cc1c[nH]cn1)NC(=O)[C@H](CCCNC(=N)N)NC(=O)[C@H](CC(C)C)NC(=O)[C@H](Cc1ccccc1)NC(=O)[C@H](Cc1c[nH]cn1)NC(=O)[C@H](C)NC(=O)[C@H](CC(C)C)NC(=O)[C@H](CCCNC(=N)N)NC(=O)[C@H](CCC(N)=O)NC(=O)[C@@H](NC(=O)[C@H](C)NC(=O)[C@@H]1CSSC[C@H](NC(=O)[C@@H](N)CCCCNC(=O)COCCOCCNC(=O)CC[C@H](NC(=O)CCCCCCCCCCCCCCCCCCC(=O)O)C(=O)O)C(=O)N[C@@H](CC(N)=O)C(=O)N[C@@H]([C@@H](C)O)C(=O)N[C@@H](C)C(=O)N[C@@H]([C@@H](C)O)C(=O)N1)[C@@H](C)O)C(=O)N1CCC[C@H]1C(=O)N[C@@H](CO)C(=O)N[C@@H](CO)C(=O)N[C@H](C(=O)N[C@@H](CC(N)=O)C(=O)N[C@H](C(=O)NCC(=O)N[C@@H](Cc1c[nH]cn1)C(=O)N[C@@H](CC(N)=O)C(=O)N[C@H](C(=O)N[C@@H](Cc1ccc(O)cc1)C(N)=O)[C@@H](C)O)C(C)C)[C@@H](C)O` [Example 80] (H-K([AEEA-γGlu-C20 diacid])CNTATCATQRLAHFLRHSSPNFGAIPSSTNVGHNTY-NH2; disulfide 2-7; N-terminus assumed), the “Ratio hCT/hAmylin funct.” value in experiment [1] (setting [3]), in experiment [1] (setting [4]) and in experiment [1] (setting [5]) was 15.4 in each case. Besides, in experiment [1], the half-maximal effective concentration (EC50) amounted to 0.139 nM. The values for the 50% inhibitory concentration (IC50) (in experiment [2]; at rat calcitonin receptor) were 0.29 nM and 60.4 nM, respectively. The “Ratio hCT/hAmylin binding” value in experiment [2] (setting [6]), in experiment [2] (setting [7]), in experiment [2] (setting [8]), in experiment [2] (setting [9]), in experiment [2] (setting [10]) and in experiment [2] (setting [11]) was 68.1 in each case. Besides, in experiment [2] (setting [12]), the “Ratio hCT/hAmylin binding” value is 68.1.
For the compound `CC[C@H](C)[C@H](NC(=O)[C@H](C)NC(=O)CNC(=O)[C@H](Cc1ccccc1)NC(=O)[C@H](CC(N)=O)NC(=O)[C@@H]1CCCN1C(=O)[C@H](CO)NC(=O)[C@H](CO)NC(=O)[C@H](Cc1c[nH]cn1)NC(=O)[C@H](CCCNC(=N)N)NC(=O)[C@H](CC(C)C)NC(=O)[C@H](Cc1ccccc1)NC(=O)[C@H](Cc1c[nH]cn1)NC(=O)[C@H](C)NC(=O)[C@H](CC(C)C)NC(=O)[C@H](CCCNC(=N)N)NC(=O)[C@H](CCC(N)=O)NC(=O)[C@@H](NC(=O)[C@H](C)NC(=O)[C@@H]1CSSC[C@H](NC(=O)[C@@H](N)CCCCNC(=O)CC[C@H](NC(=O)CCCCCCCCCCCCCCCCCCC(=O)O)C(=O)O)C(=O)N[C@@H](CC(N)=O)C(=O)N[C@@H]([C@@H](C)O)C(=O)N[C@@H](C)C(=O)N[C@@H]([C@@H](C)O)C(=O)N1)[C@@H](C)O)C(=O)N1CCC[C@H]1C(=O)N[C@@H](CO)C(=O)N[C@@H](CO)C(=O)N[C@H](C(=O)N[C@@H](CC(N)=O)C(=O)N[C@H](C(=O)NCC(=O)N[C@@H](CCCNC(=N)N)C(=O)N[C@@H](CC(N)=O)C(=O)N[C@H](C(=O)N[C@@H](Cc1ccc(O)cc1)C(N)=O)[C@@H](C)O)C(C)C)[C@@H](C)O` [Example 85] (H-K([γGlu-C20 diacid])CNTATCATQRLAHFLRHSSPNFGAIPSSTNVGRNTY-NH2; disulfide 2-7 (inferred); N-terminus assumed), the “Ratio hCT/hAmylin funct.” value in experiment [1] (setting [3]), in experiment [1] (setting [4]) and in experiment [1] (setting [5]) was 26.6 throughout. In addition, the EC50 in experiment [1] turned out to be 0.146 nM. Also, the half-inhibitory concentration (IC50) in experiment [2] was found to be 0.876 nM; at rat calcitonin receptor, 146 nM. The “Ratio hCT/hAmylin binding” value in experiment [2] (setting [6]), in experiment [2] (setting [7]), in experiment [2] (setting [8]), in experiment [2] (setting [9]), in experiment [2] (setting [10]) and in experiment [2] (setting [11]) was 91.8 throughout. The “Ratio hCT/hAmylin binding” value in experiment [2] (setting [12]) is 91.8.
For the compound `CC[C@H](C)[C@H](NC(=O)[C@H](C)NC(=O)CNC(=O)[C@H](Cc1ccccc1)NC(=O)[C@H](CC(N)=O)NC(=O)[C@@H]1CCCN1C(=O)[C@H](CO)NC(=O)[C@H](CO)NC(=O)[C@H](Cc1c[nH]cn1)NC(=O)[C@H](CCCNC(=N)N)NC(=O)[C@H](CC(C)C)NC(=O)[C@H](Cc1ccccc1)NC(=O)[C@H](CCC(=O)O)NC(=O)[C@H](C)NC(=O)[C@H](CC(C)C)NC(=O)[C@H](CCCNC(=N)N)NC(=O)[C@H](CCC(N)=O)NC(=O)[C@@H](NC(=O)[C@H](C)NC(=O)[C@@H]1CSSC[C@H](NC(=O)[C@H](CCCCN)NC(=O)CC[C@H](NC(=O)CCCCCCCCCCCCCCCCCCC(=O)O)C(=O)O)C(=O)N[C@@H](CC(N)=O)C(=O)N[C@@H]([C@@H](C)O)C(=O)N[C@@H](C)C(=O)N[C@@H]([C@@H](C)O)C(=O)N1)[C@@H](C)O)C(=O)N1CCC[C@H]1C(=O)N[C@@H](CO)C(=O)N1CCC[C@H]1C(=O)N[C@H](C(=O)N[C@@H](CC(N)=O)C(=O)N[C@H](C(=O)NCC(=O)N[C@@H](CO)C(=O)N[C@@H](CC(N)=O)C(=O)N[C@H](C(=O)N[C@@H](Cc1ccc(O)cc1)C(N)=O)[C@@H](C)O)C(C)C)[C@@H](C)O` [Example 37] ({C20 diacid-γGlu}-KCNTATCATQRLAEFLRHSSPNFGAIPSPTNVGSNTY-NH2; disulfide 2-7 (inferred)), the “Ratio hCT/hAmylin funct.” value in experiment [1] (hCTR funct. EC50 / hAmylin-R funct. EC50), in experiment [1] (setting [3]), in experiment [1] (setting [4]) and in experiment [1] (setting [5]) was 4.0 in each case. Also, the EC50 in experiment [1] is 0.092 nM. The 50% inhibitory concentration (IC50) in experiment [2] turned out to be 0.97 nM; at rat calcitonin receptor it was 7.35 nM. In addition, the “Ratio hCT/hAmylin binding” value in experiment [2] (setting [6]), in experiment [2] (setting [10]) and in experiment [2] (setting [11]) was 2.3 each time.
`CC[C@H](C)[C@H](NC(=O)[C@H](C)NC(=O)CNC(=O)[C@H](Cc1ccccc1)NC(=O)[C@H](CC(N)=O)NC(=O)[C@@H]1CCCN1C(=O)[C@H](CO)NC(=O)[C@H](CO)NC(=O)[C@H](Cc1c[nH]cn1)NC(=O)[C@H](CCCNC(=N)N)NC(=O)[C@H](CC(C)C)NC(=O)[C@H](Cc1ccccc1)NC(=O)[C@H](CCC(=O)O)NC(=O)[C@H](C)NC(=O)[C@H](CC(C)C)NC(=O)[C@H](CCCNC(=N)N)NC(=O)[C@H](CCC(N)=O)NC(=O)[C@@H](NC(=O)[C@H](C)NC(=O)[C@@H]1CSSC[C@H](NC(=O)[C@@H](N)CCCCNC(=O)CC[C@H](NC(=O)CC[C@H](NC(=O)CCCCCCCCCCCCCCCCCCC(=O)O)C(=O)O)C(=O)O)C(=O)N[C@@H](CC(N)=O)C(=O)N[C@@H]([C@@H](C)O)C(=O)N[C@@H](C)C(=O)N[C@@H]([C@@H](C)O)C(=O)N1)[C@@H](C)O)C(=O)N1CCC[C@H]1C(=O)N[C@@H](CO)C(=O)N[C@@H](CO)C(=O)N[C@H](C(=O)N[C@@H](CC(N)=O)C(=O)N[C@H](C(=O)NCC(=O)N1CCC[C@H]1C(=O)N[C@@H](CCC(=O)O)C(=O)N[C@H](C(=O)N[C@@H](Cc1ccc(O)cc1)C(N)=O)[C@@H](C)O)C(C)C)[C@@H](C)O` [Example 106] (H-K([γGlu-γGlu-C20 diacid])CNTATCATQRLAEFLRHSSPNFGAIPSSTNVGPETY-NH2; disulfide 2-7; N-terminus assumed): the “Ratio hCT/hAmylin funct.” value in experiment [1] (setting [3]), in experiment [1] (setting [4]) and in experiment [1] (setting [5]) was 10.5 in each case. Moreover, the EC50 in experiment [1] is 0.225 nM. For the same compound, the figures for the half-maximal inhibitory concentration (IC50) (in experiment [2]; on rat calcitonin receptor) were 0.121 nM and 16.1 nM, respectively. Further, the “Ratio hCT/hAmylin binding” value in experiment [2] (setting [6]), in experiment [2] (setting [7]), in experiment [2] (setting [8]), in experiment [2] (setting [10]), in experiment [2] (setting [11]) and in experiment [2] (setting [12]) was 17.6 throughout.
